The test system of one experiment is myeloperoxidase (MPO). Description: Myeloperoxidase activity in liver homogenate, DEN/2-AAF hepatocarcinogenesis model. The class given is in vivo, albino Wistar rats. To be noted: mean±SEM, 8 rats. How it is done: (§1) The experimental hepatocarcinogenesis model was developed according to a protocol by […] et al. that was adapted for our purposes. To initiate and promote hepatocarcinogenesis, diethylnitrosamine (DEN) and 2-acetylaminofluorene (2-AAF) were used, respectively. For hepatocarcinogenesis initiation in this model, a single DEN dose (200 mg/kg b.wt.) dissolved in saline was injected intraperitoneally. After initiation, all rats underwent one period of 5-days fasting, as mitotic proliferative stimuli. To promote hepatocarcinogenesis, 2-acetylaminofluorene (2-AAF) was introduced in the form of six daily intragastric doses (30 mg/kg in 1% Tween 80); two weeks after DEN treatment. […] at doses of 25 mg/kg by weight (b.wt.) and 50 mg/kg b.wt, was administrated orally to rats. These doses have been reported to suppress chemically-induced oxidative damage in rats. A total of 40 adult male albino Wistar rats were randomly divided into […] (n=8) and were subjected to different treatments. Group 1 (control) was orally administered distilled water (5 ml/kg b.wt.) throughout the experimental duration and were injected with a single dose of saline. Group 2 ([…] only) was subjected to a safranal dose (50 mg/kg b.wt.) through oral administration for the duration of the experimental period. Hepatocarcinogenesis was induced by DEN and promoted by 2-AAF, as reported previously, in group 3 (HCC). […] Glutathione (GSH) content was determined by analyzing liver homogenates, according to the method of Van Dooran et al. The assay depends on measuring yellow 5-thiol-2-nitrobenzoate absorbance at 412 nm. Glutathione-S-transferase (GST) activity was determined using the method of Habig et al. GST catalyzes the conjugation of GSH thiol group with 1-Chloro-2,4-dinitrobenzene (CDNB), which can be measured by determining the increase in absorbance at 340 nm. […] CAT decomposes hydrogen peroxide (H2O2) to oxygen and water; therefore, the activity of CAT was evaluated according to by the exponential decomposition of H2O2 at 240 nm. […] UV-160-Shimadzu recording spectrophotometer was used to record absorbances. […]

For experiment [1], the system named is human prostate cancer PC-3 cell lines. To be noted: PC-3 cell line, reported in the background; cited from earlier work.
Another experiment deals with NF-kB-p65. Description: Immunohistochemical staining of liver sections, NF-kB-p65 positive cells. In kind it is in vivo, albino Wistar rats. To be noted: low/high doses of safranal, DEN-exposed rats, vs HCC group. As to the method:
The experimental hepatocarcinogenesis model was developed according to a protocol by Espandiaria et al. that was adapted for our purposes. To initiate and promote hepatocarcinogenesis, diethylnitrosamine (DEN) and 2-acetylaminofluorene (2-AAF) were used, respectively. For hepatocarcinogenesis initiation in this model, a single DEN dose (200 mg/kg b.wt.) dissolved in saline was injected intraperitoneally. After initiation, all rats underwent one period of 5-days fasting, as mitotic proliferative stimuli. To promote hepatocarcinogenesis, 2-acetylaminofluorene (2-AAF) was introduced in the form of six daily intragastric doses (30 mg/kg in 1% Tween 80); two weeks after DEN treatment.
Safranal at doses of 25 mg/kg by weight (b.wt.) and 50 mg/kg b.wt, was administrated orally to rats. These doses have been reported to suppress chemically-induced oxidative damage in rats. A total of 40 adult male albino Wistar rats were randomly divided into […] (n=8) and were subjected to different treatments. […]
For immunohistochemical staining, mounted sections were immersed in sodium citrate buffer (0.1 M, pH 6) and placed in a water bath for 15 minutes to unmask antigen epitopes. […] Ten fields were randomly selected to quantify positive cells, in individual samples (400×). […]

Another experiment deals with catalase (CAT). Nature of the experiment: Catalase activity in liver homogenate, DEN/2-AAF hepatocarcinogenesis model. In kind it is in vivo, albino Wistar rats. Particulars: mean±SEM, 8 rats. As to the method: as §1
The mark [2] stands for this setting: HCC (DEN/2-AAF) rats + safranal high dose 50 mg/kg b.wt. oral, 12 weeks.
The mark [3] stands for this setting: HCC (DEN/2-AAF) rats + safranal low dose 25 mg/kg b.wt. oral, 12 weeks.
[4] abbreviates: safranal alone 50 mg/kg b.wt. oral, no DEN (group 2).

For `CC1=C(C=O)C(C)(C)CC=C1` [Safranal, 2,6,6-trimethylcyclohexa-1,3-diene-1-carbaldehyde], the MPO worked out at 31.54 ± 2.4 milliunit/mg protein with myeloperoxidase (MPO) (setting [2]), 27.47 ± 1.77 milliunit/mg protein with myeloperoxidase (MPO) (setting [3]) and 32.61 ± 1.61 milliunit/mg protein in the experiment with myeloperoxidase (MPO) (setting [4]). Also, the apoptosis entry in experiment [1] is on record as “induce apoptosis”. The “number of NF-kB-p65-positive cells” value with NF-kB-p65 is given as “significantly reduced the number of NF-kB-p65-positive cells”. Besides, the CAT in the experiment with catalase (CAT) (setting [2]) came out at 145.4512 ± 4.57 unit/mg protein; in the experiment on catalase (CAT) (setting [3]), 141.38 ± 0.91 unit/mg protein; in the experiment on catalase (CAT) (setting [4]), 143.75 ± 1.2 unit/mg protein.

The record behind these values is patent publication US10912741B2, “Prevention of liver cancer with safranal-based formulations” (United Arab Emirates University, priority 2019, dated 2021).
